The record followed here is ChEMBL document CHEMBL1126344, “Substituted penta- and hexapeptides as potent inhibitors of herpes simplex virus type 2 ribonucleotide reductase” (Bioorg Med Chem Lett, 1992).

Experiment [1] in a line: Inhibitory activity of YAGAVVNDL against Herpes Simplex Virus type 2 (HSV-2) ribonucleotide reductase determined as control. Further details: species or system Human alphaherpesvirus 2.
The subject of the next experiment is Human alphaherpesvirus 2. As to the kind of experiment: Relative potency to that of YAGAVVNDL against Herpes Simplex Virus type 2 ribonucleotide reductase.
Experiment [2] deals with Ribonucleotide reductase (Herpes simplex virus type 2). The experiment in a line: Compound was tested in vitro for inhibitory activity against Herpes Simplex Virus type 2 ribonucleotide reductase.

SMILES strings stand for the structures. Non-standard residues stand in square brackets, D forms with d. Residues, ends and D or L forms follow the SMILES beside them. NBnTyr = O=C(O)[C@H](Cc1ccc(O)cc1)NCc1ccccc1

For `CC(C)C[C@H](NC(=O)[C@H](CC(=O)O)NC(=O)[C@H](CC(N)=O)NC(=O)[C@@H](NC(=O)[C@@H](NC(=O)Cc1ccc2ccccc2c1)C(C)C)C(C)C)C(=O)O`, the IC50 in experiment [1] amounted to 30 µM; in experiment [2], 5 µM. This molecule also displayed a Relative potency in the experiment with Human alphaherpesvirus 2 of 6.
On the same counts, the results for `CC(C)C[C@H](NC(=O)[C@H](CC(=O)O)NC(=O)[C@H](CC(N)=O)NC(=O)[C@@H](NC(=O)[C@@H](NC(=O)[C@H](Cc1ccc(O)cc1)NCc1ccccc1)C(C)C)C(C)C)C(=O)O` (H-[NBnTyr]VVNDL-OH) are 30 µM, 6 µM and 5.
As to `CC(C)C[C@H](NC(=O)[C@H](CC(=O)O)NC(=O)[C@H](CC(N)=O)NC(=O)[C@@H](NC(=O)[C@@H](NC(=O)C(Cc1ccccc1)Cc1ccc(O)cc1)C(C)C)C(C)C)C(=O)O` (stereo in doubt; form 1), the IC50 was 9.5 µM in experiment [1] and 0.45 µM in experiment [2].

By IC50 is commonly meant the concentration that inhibits the measured activity by half. Higher therefore signals weaker potency in that assay.
